Each structure is given as a SMILES string. Like-named read-outs stand apart in the source and are kept apart here.

What all share (type): in vivo
In experiment [1] the test system is Sinapis. Kind of experiment: Postemergence herbicidal action (contact herbicide), compounds of formula I, Sinapis. The arrangement: key: 1: plants have not germinated or have completely died off; 2-3: very pronounced action; 4-6: medium action; 7-8: slight action; 9: no action (as untreated controls). Conditions: 4 kg a.i./ha, 15 days. How it is done:
(§1) The weeds to be tested are sprayed postemergence (in the 4- to 6-leaf stage) with an aqueous dispersion prepared from compounds of formula I formulated as (a) a 10% or (b) a 25% wettable powder or (c) a 25% emulsifiable concentrate, at a rate of application of 4 kg a.i./ha. The plants are kept at 24°-26° C. and 45-60% relative humidity. The test is evaluated 15 days later in accordance with the same rating as used in the preemergence test (Example 19).

The subject of a further experiment is weeds. As to the kind of experiment: Postemergence herbicidal action (contact herbicide), compounds of formula I, overall. To be noted: 4 kg a.i./ha, 15 days later. How it is done:
as §1

Experiment [2] deals with Solanum. As to the kind of experiment: Postemergence herbicidal action (contact herbicide), compounds of formula I, Solanum. The arrangement: key: 1: plants have not germinated or have completely died off; 2-3: very pronounced action; 4-6: medium action; 7-8: slight action; 9: no action (as untreated controls). Conditions: 4 kg a.i./ha, 15 days. How it is done:
as §1

In experiment [3] the test system is Setaria. Kind of experiment: Postemergence herbicidal action (contact herbicide), compounds of formula I, Setaria. To be noted: 4 kg a.i./ha, 15 days. How it is done:
as §1

Another experiment deals with Erysiphe graminis. As to the kind of experiment: Action against Erysiphe graminis on barley. Conditions: 0.02% spray mixture, 10 days. How it is done:
Barley plants about 8 cm in height are sprayed with a spray mixture (0.02% of compound of formula I) prepared from a 25% emulsifiable concentrate. After 3-4 hours the plants are dusted with conidia of Erysiphe graminis. The infected barley plants are then stood in a greenhouse at about 22° C. Evaluation of fungus attack is made 10 days later.

The subject of experiment [4] is Solanum. As to the kind of experiment: Postemergence herbicidal action (contact herbicide), compounds of formula II, Solanum. The arrangement: key to postemergence herbicidal action rating: 1: plants completely withered; 2-3: very pronounced action; 4-6: medium action; 7-8: insignificant action; 9: no action (as untreated controls). Conditions: 4 kg a.i./ha, 15 days; for postemergence herbicidal action rating: 25% wettable powder; for herbicidal action in words: postemergence. How it is done: (§2) The plants for testing are sprayed postemergence (in the 4- to 6-leaf stage) at a concentration of 4 kg a.i./ha with an aqueous dispersion prepared from a compound of formula II formulated as a 25% wettable powder. The plants are then kept at 24°-26° C. and 45-60% relative humidity. The test is evaluated 15 days later according to the following rating: […]

For another experiment, the system named is Phaseolus. Kind of experiment: Postemergence herbicidal action (contact herbicide), compounds of formula II, Phaseolus. Set-up: key to postemergence herbicidal action rating: 1: plants completely withered; 2-3: very pronounced action; 4-6: medium action; 7-8: insignificant action; 9: no action (as untreated controls). To be noted: 4 kg a.i./ha, 15 days; for postemergence herbicidal action rating: 25% wettable powder; for herbicidal action in words: postemergence. How it is done:
as §2

In experiment [5] the test system is Xanthomonas oryzae. Conditions: for bactericidal properties in words: residual-protective action.
For experiment [6], the system named is Setaria. As to the kind of experiment: Preemergence herbicidal action (inhibition of germination), Setaria. Set-up: key to preemergence herbicidal action rating: 1: plants have not germinated or have completely died off; 2-3: very pronounced action; 4-6: medium action; 7-8: slight action; 9: no action (as untreated controls). To be noted: 4 kg a.i./ha, after 3 weeks. How it is done:
(§3) In a greenhouse, immediately after sowing seeds of test plants in seed dishes, the surface of the soil is treated with an aqueous dispersion prepared from a 10% wettable powder formulation of test compounds of formula I. Concentrations of 4 kg of active ingredient per hectare are used. The seed dishes are kept in the greenhouse at 22°-25° C. and 50-70% relative humidity, and the test is evaluated after 3 weeks in accordance with the following rating: […]

The subject of experiment [7] is Sinapis. Kind of experiment: Preemergence herbicidal action (inhibition of germination), Sinapis. Conditions: 4 kg a.i./ha, after 3 weeks. How it is done:
as §3

The test system of a further experiment is Stellaria. Kind of experiment: Preemergence herbicidal action (inhibition of germination), Stellaria. The arrangement: key to preemergence herbicidal action rating: 1: plants have not germinated or have completely died off; 2-3: very pronounced action; 4-6: medium action; 7-8: slight action; 9: no action (as untreated controls). To be noted: 4 kg a.i./ha, after 3 weeks. How it is done:
as §3

The subject of experiment [8] is Xanthomonas oryzae. Conditions: for bactericidal activity: based on the volume of the soil.
[9] abbreviates: formulation (c) 25% emulsifiable concentrate.
Setting [10] is: formulation (a) 10% wettable powder.
The mark [11] stands for this setting: formulation (b) 25% wettable powder.

With `COP(=O)(OC)c1cc(Oc2ccc(C(F)(F)F)cn2)ccc1[N+](=O)[O-]` [Compound 1], the “postemergence herbicidal action rating” value is 3 in the experiment with Sinapis [1] (setting [9]), 4 with Solanum [2] (setting [9]) and 4 in the experiment on Setaria [3] (setting [9]). Also, the “postemergence effectiveness in words” value in the experiment on weeds is recorded as “very effective”. In addition, the “reduction of fungus attack compared with untreated controls” value in the experiment on Erysiphe graminis (25% emulsifiable concentrate, untreated = 100% attack) is recorded as 80-95%. Moreover, the effectiveness in words entry with Erysiphe graminis is listed as “particularly effective”.
Take `O=[N+]([O-])c1ccc(Oc2ncc(C(F)(F)F)cc2Cl)cc1[N+](=O)[O-]` [II-2, 1,2-dinitro-4-(3'-chloro-5'-trifluoromethyl-2'-pyridyloxy)benzene]: in the experiment on Solanum [4], the “postemergence herbicidal action rating” value amounted to 1 and the “herbicidal action in words” value is given as “excellent herbicidal action”. For the same compound, in the experiment with Phaseolus, the “postemergence herbicidal action rating” value is given as 1 and the “herbicidal action in words” value is given as “excellent herbicidal action”.
With `COP(=O)(OC)c1cc(Oc2ncc(C(F)(F)F)cc2Cl)ccc1[N+](=O)[O-]` [Compound 6, Dimethyl 2-nitro-5-(3'-chloro-5'-trifluoromethyl-2'-pyridyloxy)phenylphosphonate], the results for the “postemergence herbicidal action rating” value in the experiment on Sinapis [1] (setting [10]), with Solanum [2] (setting [10]) and with Setaria [3] (setting [10]) were 1, 1 and 3, respectively. In addition, the “postemergence effectiveness in words” value in the experiment with weeds is “very effective”. The action result with Xanthomonas oryzae [5] (concentration of 0.02%) is listed as “over 95%”. The “bactericidal properties in words” value in the experiment on Xanthomonas oryzae [5] is given as “pronounced bactericidal properties”. Moreover, the results for the “preemergence herbicidal action rating” value with Setaria [6] (10% wettable powder), in the experiment on Sinapis [7] (10% wettable powder) and with Stellaria (10% wettable powder) were 1, 2 and 1, respectively. Further, the “preemergence effectiveness in words” value with Setaria [6], with Sinapis [7] and in the experiment with Stellaria was “very effective” throughout.
As to `COP(=O)(OC)c1cc(Oc2ncc(Cl)cc2Cl)ccc1[N+](=O)[O-]` [Compound 4, Dimethyl 2-nitro-5-(3',5'-dichloro-2'-pyridyloxy)phenylphosphonate], the bactericidal activity was 50-80% in the experiment with Xanthomonas oryzae [8] (concentration of 0.0006%) and “over 95%” in the experiment on Xanthomonas oryzae [8] (concentration of 0.006%). Moreover, the “bactericidal activity in words” value with Xanthomonas oryzae [8] (systemic action) was “pronounced bactericidal activity”. The “postemergence herbicidal action rating” value was 3 in the experiment on Sinapis [1] (setting [11]), 2 in the experiment on Solanum [2] (setting [11]) and 3 in the experiment with Setaria [3] (setting [11]). In addition, the “postemergence effectiveness in words” value with weeds is “very effective”. The action in the experiment on Xanthomonas oryzae [5] (concentration of 0.0006%) is given as 80-95%; in the experiment on Xanthomonas oryzae [5] (concentration of 0.006%), “over 95%”. Besides, the “bactericidal properties in words” value in the experiment on Xanthomonas oryzae [5] was “pronounced bactericidal properties”.
Turning to `CCOP(=O)(OCC)c1cc(Oc2ncc(C(F)(F)F)cc2Cl)ccc1[N+](=O)[O-]` [Compound 7, Diethyl 2-nitro-5-(3'-chloro-5'-trifluoromethyl-2'-pyridyloxy)phenylphosphonate], the “postemergence herbicidal action rating” value in the experiment on Sinapis [1] (setting [9]) is on record as 2; in the experiment on Solanum [2] (setting [9]), 1; in the experiment with Setaria [3] (setting [9]), 3. Also, the “postemergence effectiveness in words” value in the experiment with weeds is “very effective”.
`O=[N+]([O-])c1ccc(Oc2ccc(C(F)(F)F)cn2)cc1[N+](=O)[O-]` [II-3, 1,2-dinitro-4-(5'-trifluoromethyl-2'-pyridyloxy)benzene]: the figures for the “postemergence herbicidal action rating” value in the experiment on Solanum [4] and in the experiment with Phaseolus were 3 and 1, respectively. Also, the “herbicidal action in words” value with Solanum [4] and in the experiment on Phaseolus was “excellent herbicidal action” throughout.
In the case of `CCOP(=O)(OCC)c1cc(Oc2ncc(Cl)cc2Cl)ccc1[N+](=O)[O-]` [Compound 9, Diethyl 2-nitro-5-(3',5'-dichloro-2'-pyridyloxy)phenylphosphonate], the results for the “postemergence herbicidal action rating” value in the experiment on Sinapis [1] (setting [9]), in the experiment with Solanum [2] (setting [9]) and with Setaria [3] (setting [9]) were 2, 1 and 2, respectively. The “postemergence effectiveness in words” value in the experiment on weeds was “very effective”.

The values above are taken from patent publication US4451284A, “Derivatives of 2-nitro-4- or -5-pyridyloxyphenylphosphonic acid, the preparation thereof, the use thereof as herbicides and/or plant growth regulators” (Ciba-Geigy Corporation, priority 1981, dated 1984).
